The text below walks through data of patent publication EP3501540A1, “MITOCHONDRIAL TRIFUNCTIONAL PROTEIN (MTP) INHIBITORS FOR USE IN THE TREATMENT OF HIGH MITOCHONDRIAL RESPIRATION (OX+) CANCERS” (UNIVERSITE DE BORDEAUX, priority 2017, dated 2019).

Experiment [1] concerns A549 (OX+) cells. In words: Oxygen consumption by high-resolution respirometry. Format: cell-based, human. The note with it: 500µM for 48H. On the procedure: O2 consumption rates were measured polarographically using high-resolution respirometry (Oroboros Oxygraph-O2K). After the treatment period, medium was removed and cells were either suspended in DMEM in the presence of glucose or not for measurements of O2 consumption of intact cells, or in the respiration medium pH 7.2 (mannitol 0.25 M, MgCl2 10 mM, KH2PO4 10 mM, HEPES 10 mM, EDTA 0.08 mM, EGTA 1 mM and fatty acid free BSA 0.1%) for evaluation of respiratory complexes of permeabilized cells. Routine consumption, oligomycin-independent respiration (proton leak), FCCP-stimulated respiration (ETS capacity - maximum respiration) and ROX (oxygen consumption in presence of rotenone and antimicyn A) were measured in intact […] cells. All the values were corrected by ROX. The respiratory activity of ETF of digitonin 0.0015%-permeabilized lung cancer cells were performed following the addition of palmitoyl-carnitine 25 µM (ETF-linked substrate), rotenone 0.5 µM, ADP 100 µM. DatLab software (Oroboros Instruments, Innsbruck, Austria) was used for data acquisition and analysis.

The test system of experiment [2] is respiratory chain complex I. In words: Complex I enzymatic activity assay (spectrophotometric). The note with it: A549 cells: 500 µM Trimetazidine 48H; cell homogenate: 100 µM palmitoyl-Coa, 10 min incubation. Format: biochemical, human. As for the experimental part:
Enzymatic activities were measured spectrophotometrically, in homogenate of cells using the following reaction media: Complex I - 50mM potassium phosphate buffer, 100µM Decylubiquinone. The reaction was started by the addition of 100µM NADH and carried out at 37°C for 15 min in 340nm. After the stabilization of the signal was added 12,5µM Rotenone. Complex II - 25mM potassium phosphate buffer, 1mM KCN, 100µM ATP, 50µM DCPIP, 20mM succinate. The reaction was started by the addition of 100µM decylubiquinone and carried out at 37°C for 15 min in 660nm. Complex III - 100mM potassium phosphate buffer, 50µM cytochrome c, 250µM EDTA. The reaction was started by the addition of 100µM decylubiquinol and carried out at 37°C for 15 min in 550nm. After the stabilization of the signal was added 12,5µg/ml antimycin A. Complex IV - 100uM reduced cytochrome C in 50mM potassium phosphate buffer. The reaction was started by the addition of homogenate of cells and carried out at 37°C for 15 min in 550nm.

Experiment [3] has as its system A549 (OX+) cells. The experiment can be described thus: NAD/NADH determination. The experiment is classed as cell-based, human. The conditions noted are these: 500µM for 48H. As for the experimental part:
The NAD/NADH was measure using the NAD/NADH Colorimetric assay Kit (abcam), according to the manufacturer's instructions. At 25°C absorbance was measured at 450 nm and the value used to calculate the ratio. The assay was normalized to cell number.

For experiment [4], the system named is H460 (OX-) cells. In words: Sulphorodamine B viability assay. Format: cell-based, human. The note with it: H460 (OX-) cells in vitro. On the procedure:
A549_LUC and H460_LUC, human lung cancer cells, were stably transfected with luciferase (pRRLsin-MND-Luc-WPRE). The cells were maintained in DMEM medium (Gibco) 11885-084 and 11965-092 respectively, supplemented with 10% fetal bovine serum (FBS), pH 7.4 at 37°C in a humidified incubation chamber with 5% CO2. Cells were sub-cultured every 2 days and used on experiments when they reached 85% confluency. Also, they were tested as luciferase positive using direct application of 2 mL of a 150 mg/ml solution of luciferine (Firefly Luciferin, Caliper Lifescience Corp, USA), followed by immediate bioluminescent imaging using the photonIMAGER™ optima system.
Briefly, cells were seeded in 96-well plates and medium was changed after 24 h, then Test Reagent was added on top of the cell wells and incubated for up to 72h. The viability assay was performed using Sulforhodamine B colorimetric assay for viability assay following the protocol described by Vanicha Vichai & Kanyawim Kirtikara.

`COc1ccc(CN2CCNCC2)c(OC)c1OC` [Trimetazidine, 1-(2,3,4-trimethoxybenzyl)piperazine]: the mitochondrial respiration result in experiment [1] is listed as “inhibited”. For the same molecule, in experiment [2], the “respiratory chain complex I activity” value was “inhibition”. The “NADH redox state (NAD+/NADH ratio)” value in experiment [3] is “altered”. In addition, the cell viability entry in experiment [4] was “no effect”.
